Test results taken from patent US20130143835A1, “HCV Polymerase Inhibitors” (MEDIVIR AB, priority 2011, published 2013).

Test system: HCV type 1b replicon in Huh-7 luc/neo (Huh-Luc) cells
Assay: HCV replicon assay (Huh-Luc cells, luciferase read-out)
Format: cell-based
Conditions: inhibition of HCV replication, three days incubation, luciferase activity
Text: The in vitro antiviral activity against HCV of the compounds of formula I can be tested in a cellular HCV replicon system based on Lohmann et al. (1999) Science 285:110-113, with the further modifications described by Krieger et al. (2001) Journal of Virology 75: 4614-4624 (incorporated herein by reference), which is further exemplified in the examples section. This model, while not a complete infection model for HCV, is widely accepted as the most robust and efficient model of autonomous HCV RNA replication currently available. It will be appreciated that it is important to distinguish between compounds that specifically interfere with HCV functions from those that exert cytotoxic or cytostatic effects in the HCV replicon model, and as a consequence cause a decrease in HCV RNA or linked reporter enzyme concentration. Assays are known in the field for the evaluation of cellular cytotoxicity based for example on the activity of mitochondrial enzymes using fluorogenic redox dyes such as resazurin. Furthermore, cellular counter screens exist for the evaluation of non-selective inhibition of linked reporter gene activity, such as firefly luciferase. Appropriate cell types can be equipped by stable transfection with a luciferase reporter gene whose expression is dependent on a constitutively active gene promoter, and such cells can be used as a counter-screen to eliminate non-selective inhibitors.
The compounds of formula I may be examined for activity in the inhibition of HCV RNA replication in a cellular assay aimed at identifying compounds that inhibit a HCV functional cellular replicating cell line, also known as HCV replicons. A suitable cellular assay is based on a bicistronic expression construct, as described by Lohmann et al. (1999), Science vol. 285 pp. 110-113 with modifications described by Krieger et al. (2001), Journal of Virology 75: 4614-4624, in a multi-target screening strategy.
The assay utilizes the stably transfected cell line Huh-7 luc/neo (hereafter referred to as Huh-Luc). This cell line harbors an RNA encoding a bicistronic expression construct comprising the wild type NS3-NS5B regions of HCV type 1b translated from an Internal Ribosome Entry Site (IRES) from encephalomyocarditis virus (EMCV), preceded by a reporter portion (FfL-luciferase), and a selectable marker portion (neo^R, neomycine phosphotransferase). The construct is bordered by 5′ and 3′ NTRs (non-translated regions) from HCV type 1b. Continued culture of the replicon cells in the presence of G418 (neo^R) is dependent on the replication of the HCV RNA. The stably transfected replicon cells that express HCV RNA, which replicates autonomously and to high levels, encoding inter alia luciferase, are used for screening the antiviral compounds.
The replicon cells are plated in 384 well plates in the presence of the test and control compounds which are added in various concentrations. Following an incubation of three days, HCV replication is measured by assaying luciferase activity (using standard luciferase assay substrates and reagents and a Perkin Elmer ViewLux™ ultraHTS microplate imager). Replicon cells in the control cultures have high luciferase expression in the absence of any inhibitor. The inhibitory activity of a compound on luciferase activity is monitored on the Huh-Luc cells, enabling a dose-response curve for each test compound. EC50 values are then calculated, which value represents the amount of the compound required to decrease the level of detected luciferase activity by 50%, or more specifically, the ability of the genetically linked HCV replicon RNA to replicate.

Row | SMILES | EC50 [nM]
1 | C[C@H](NP(=O)(OC[C@H]1O[C@@H](n2ccc(=O)[nH]c2=O)[C@](C)(N)[C@@H]1O)Oc1ccccc1)C(=O)OC1CCCCCC1 (single isomer, unassigned) [Example 7B] | 190
2 | COC(=O)[C@H](C)NP(=O)(OC[C@H]1O[C@@H](n2ccc(=O)[nH]c2=O)[C@](C)(N)[C@@H]1O)Oc1ccccc1 (single isomer, unassigned) [Example 16A] | 5100
3 | C[C@H](NP(=O)(OC[C@H]1O[C@@H](n2ccc(=O)[nH]c2=O)[C@](C)(N)[C@@H]1O)Oc1ccccc1)C(=O)OCC1CC1 (single isomer, unassigned) [Example 26B] | 760
4 | CC(C)COC(=O)[C@H](C)NP(=O)(OC[C@H]1O[C@@H](n2ccc(=O)[nH]c2=O)[C@](C)(N)[C@@H]1O)Oc1ccccc1 (single isomer, unassigned) [Example 17A] | 2600
5 | C[C@H](NP(=O)(OC[C@H]1O[C@@H](n2ccc(=O)[nH]c2=O)[C@](C)(N)[C@@H]1O)Oc1ccccc1)C(=O)OC1CCCCCCC1 (single isomer, unassigned) [Example 10A] | 15000
6 | CC[C@@H](C)OC(=O)[C@H](C)NP(=O)(OC[C@H]1O[C@@H](n2ccc(=O)[nH]c2=O)[C@](C)(N)[C@@H]1O)Oc1ccccc1 (single isomer, unassigned) [Example 21A] | 5100
7 | C[C@H](NP(=O)(OC[C@H]1O[C@@H](n2ccc(=O)[nH]c2=O)[C@](C)(N)[C@@H]1O)Oc1ccccc1)C(=O)OCc1ccccc1 (single isomer, unassigned) [Example 15B] | 660
8 | CCC(CC)OC(=O)[C@H](C)NP(=O)(OC[C@H]1O[C@@H](n2ccc(=O)[nH]c2=O)[C@](C)(N)[C@@H]1O)Oc1ccccc1 (single isomer, unassigned) [Example 28A] | 34000
9 | CC(C)OC(=O)[C@H](C)NP(=O)(OC[C@H]1O[C@@H](n2ccc(=O)[nH]c2=O)[C@](C)(N)[C@@H]1O)Oc1ccccc1 (stereo partly drawn) [Example 2] | 2000
10 | C[C@H](NP(=O)(OC[C@H]1O[C@@H](n2ccc(=O)[nH]c2=O)[C@](C)(N)[C@@H]1O)Oc1ccccc1)C(=O)OC1CCCC1 (single isomer, unassigned) [Example 5B] | 470
11 | COC(=O)[C@H](C)NP(=O)(OC[C@H]1O[C@@H](n2ccc(=O)[nH]c2=O)[C@](C)(N)[C@@H]1O)Oc1ccccc1 (single isomer, unassigned) [Example 16B] | 2100
12 | CC(C)COC(=O)[C@H](C)NP(=O)(OC[C@H]1O[C@@H](n2ccc(=O)[nH]c2=O)[C@](C)(N)[C@@H]1O)Oc1ccccc1 (single isomer, unassigned) [Example 17B] | 600
13 | CCC(CC)OC(=O)[C@H](C)NP(=O)(OC[C@H]1O[C@@H](n2ccc(=O)[nH]c2=O)[C@](C)(N)[C@@H]1O)Oc1ccccc1 (single isomer, unassigned) [Example 28B] | 480
14 | C[C@H](NP(=O)(OC[C@H]1O[C@@H](n2ccc(=O)[nH]c2=O)[C@](C)(N)[C@@H]1O)Oc1ccccc1)C(=O)OCC(C)(C)C (single isomer, unassigned) [Example 13B] | 300
15 | C[C@H](NP(=O)(OC[C@H]1O[C@@H](n2ccc(=O)[nH]c2=O)[C@](C)(N)[C@@H]1O)Oc1ccccc1)C(=O)OCCC(C)(C)C (single isomer, unassigned) [Example 6A] | 2300
16 | C[C@H](NP(=O)(OC[C@H]1O[C@@H](n2ccc(=O)[nH]c2=O)[C@](C)(N)[C@@H]1O)Oc1ccccc1)C(=O)OCc1ccccc1 (single isomer, unassigned) [Example 15A] | 3100
17 | CCCC(CCC)COC(=O)[C@H](C)NP(=O)(OC[C@H]1O[C@@H](n2ccc(=O)[nH]c2=O)[C@](C)(N)[C@@H]1O)Oc1ccccc1 (single isomer, unassigned) [Example 14B] | 420
18 | C[C@H](NP(=O)(OC[C@H]1O[C@@H](n2ccc(=O)[nH]c2=O)[C@](C)(N)[C@@H]1O)Oc1ccccc1)C(=O)OC1CCCCC1 (single isomer, unassigned) [Example 12A] | 380

Row | SMILES | EC50 [nM]
19 | CC[C@@H](C)OC(=O)[C@H](C)NP(=O)(OC[C@H]1O[C@@H](n2ccc(=O)[nH]c2=O)[C@](C)(N)[C@@H]1O)Oc1ccccc1 (single isomer, unassigned) [Example 22A] | 21000
20 | CCCOC(=O)[C@H](C)NP(=O)(OC[C@H]1O[C@@H](n2ccc(=O)[nH]c2=O)[C@](C)(N)[C@@H]1O)Oc1ccccc1 (single isomer, unassigned) [Example 24B] | 1500
21 | CCC[C@H](C)OC(=O)[C@@H](C)NP(=O)(OC[C@H]1O[C@@H](n2ccc(=O)[nH]c2=O)[C@](C)(N)[C@@H]1O)Oc1ccccc1 (single isomer, unassigned) [Example 25B] | 380
22 | C[C@H](NP(=O)(OC[C@H]1O[C@@H](n2ccc(=O)[nH]c2=O)[C@](C)(N)[C@@H]1O)Oc1ccccc1)C(=O)OC1CCCCCCC1 (single isomer, unassigned) [Example 10B] | 290
23 | C[C@H](NP(=O)(OC[C@H]1O[C@@H](n2ccc(=O)[nH]c2=O)[C@](C)(N)[C@@H]1O)Oc1ccccc1)C(=O)OC1CCCCCC1 (single isomer, unassigned) [Example 7A] | 3000
24 | C[C@H](NP(=O)(OC[C@H]1O[C@@H](n2ccc(=O)[nH]c2=O)[C@](C)(N)[C@@H]1O)Oc1ccccc1)C(=O)OCC1CCCC1 (single isomer, unassigned) [Example 27B] | 380
25 | CC[C@@H](C)OC(=O)[C@H](C)NP(=O)(OC[C@H]1O[C@@H](n2ccc(=O)[nH]c2=O)[C@](C)(N)[C@@H]1O)Oc1ccccc1 (single isomer, unassigned) [Example 21B] | 740
26 | CCCCOC(=O)[C@H](C)NP(=O)(OC[C@H]1O[C@@H](n2ccc(=O)[nH]c2=O)[C@](C)(N)[C@@H]1O)Oc1ccccc1 (single isomer, unassigned) [Example 19B] | 290
27 | CCCC(CCC)COC(=O)[C@H](C)NP(=O)(OC[C@H]1O[C@@H](n2ccc(=O)[nH]c2=O)[C@](C)(N)[C@@H]1O)Oc1ccccc1 (single isomer, unassigned) [Example 14A] | 1600
28 | C[C@H](NP(=O)(OC[C@H]1O[C@@H](n2ccc(=O)[nH]c2=O)[C@](C)(N)[C@@H]1O)Oc1ccccc1)C(=O)OC1CCC1 (single isomer, unassigned) [Example 8B] | 800
29 | CC(C)OC(=O)[C@H](C)NP(=O)(OC[C@H]1O[C@@H](n2ccc(=O)[nH]c2=O)[C@](C)(N)[C@@H]1O)Oc1ccccc1 (single isomer, unassigned) [Example 9A] | 13000
30 | C[C@H](NP(=O)(OC[C@H]1O[C@@H](n2ccc(=O)[nH]c2=O)[C@](C)(N)[C@@H]1O)Oc1ccccc1)C(=O)OCC1CC1 (single isomer, unassigned) [Example 26A] | 1700
31 | C[C@H](NP(=O)(OC[C@H]1O[C@@H](n2ccc(=O)[nH]c2=O)[C@](C)(N)[C@@H]1O)Oc1ccccc1)C(=O)OC1CCCC1 (single isomer, unassigned) [Example 5A] | 4700
32 | CCOC(=O)[C@H](C)NP(=O)(OC[C@H]1O[C@@H](n2ccc(=O)[nH]c2=O)[C@](C)(N)[C@@H]1O)Oc1ccccc1 (single isomer, unassigned) [Example 11A] | 6400
33 | C[C@H](NP(=O)(OC[C@H]1O[C@@H](n2ccc(=O)[nH]c2=O)[C@](C)(N)[C@@H]1O)Oc1ccccc1)C(=O)OCC(C)(C)C (single isomer, unassigned) [Example 13A] | 2400
34 | C[C@H](NP(=O)(OC[C@H]1O[C@@H](n2ccc(=O)[nH]c2=O)[C@](C)(N)[C@@H]1O)Oc1ccccc1)C(=O)OCCC(C)(C)C (single isomer, unassigned) [Example 6B] | 490
35 | C[C@H](NP(=O)(OC[C@H]1O[C@@H](n2ccc(=O)[nH]c2=O)[C@](C)(N)[C@@H]1O)Oc1ccccc1)C(=O)OC1CCC1 (single isomer, unassigned) [Example 8A] | 1900
36 | CCC(CC)COC(=O)[C@H](C)NP(=O)(OC[C@H]1O[C@@H](n2ccc(=O)[nH]c2=O)[C@](C)(N)[C@@H]1O)Oc1ccccc1 (single isomer, unassigned) [Example 20B] | 400
